Source: patent US20230250428A1, “Method and composition for early detection of malignancies” (Alliance of Cardiovascular Researchers, priority 2022, published 2023)

What was measured:
4IC cells = experiment: Cell cycle profile of 4IC TNBC cells with TRAF3IP2 knockdown and/or Paclitaxel; format: cell-based, human; conditions: 4IC cells in vitro, vs 4ICControl shRNA
Excerpt: FIG. 7. […] Cell cycle profiles of 4ICControl shRNA, 4ICControl shRNA+Paclitaxel, 4ICTRAF3IP2 KD and 4ICTRAF3IP2 KD+Paclitaxel (A-D).
Paclitaxel has been previously shown to arrest cell cycle progression at the G2/M phase, resulting in apoptosis.

4IC tumors = experiment: Effect of targeting TRAF3IP2 on chemoresistance in vivo (4IC tumors, Paclitaxel combination); design: species or system mice; conditions: vs SCR-AO group
Procedure: FIG. 16. Effect of targeting TRAF3IP2 on chemoresistance in vivo. Tumors were induced using 4IC cells (n=6 animals/group), and mice were treated with one of the following: SCR-AO, SCR-AO+Paclitaxel, TRAF3IP2-AO, or TRAF3IP2-AO+Paclitaxel. Animals in the 4IC SCR-AO group were euthanized by day 28 due to increased tumor […]. Paclitaxel reduced tumor volume by 42% and TRAF3IP2 targeting reduced tumor size by 78%.
At first, we induced tumors using wild type 4IC cells and a similar set up described in FIG. 12. After tumor induction, each group was treated with one of the following: SCR-AO, SCR-AO and Paclitaxel, TRAF3IP2-AO, or TRAF3IP2-AO and Paclitaxel. Animals in the SCR-AO group had to be euthanized by day 28 due to increased tumor burden. Paclitaxel reduced tumor volume by 42% and TRAF3IP2 targeting reduced tumor size by 78%.

**Q.** What does the source list for `CC(=O)O[C@H]1C(=O)[C@@]2(C)[C@H]([C@H](OC(=O)c3ccccc3)[C@]3(O)C[C@H](OC(=O)[C@H](O)[C@@H](NC(=O)c4ccccc4)c4ccccc4)C(C)=C1C3(C)C)[C@]1(OC(C)=O)CO[C@@H]1C[C@@H]2O` [Paclitaxel]?
**A.** increase in the proportion of cells in G2 (4IC cells): 23%; reduction of tumor volume (4IC tumors): 42%
